Data set [1] can be described thus: Hydrolysis to the parent drug ethinyl estradiol (0.5N NaOH, HPLC quantification). Type of data set: physicochemical. The settings on record: 5 min, prodrug solution + water + 0.5N NaOH. On the procedure: Hydrolysis studies refer to the rate of hydrolysis to the parent drug, ethinyl estradiol. Hydrolysis was conducted in the following manner: • (1) 1 mL of a solution containing the prodrug, 2.8 mL of water and 0.1 mL of 0.5N NaOH were combined; • (2) the resulting solution was vortexed for 10 seconds; • (3) the mixture was then left to stand for specific time intervals (e.g., 5 minutes, 15 minutes, etc.); • (4) the mixture was then neutralized with 0.1 mL of a buffer; and • (5) the solutions were finally injected to quantify the disappearance of the prodrug and the formation of the parent compound.

The nature of data set [2]: Stability at 40° C./75% RH, prodrug assayed for degradation to ethinyl estradiol (HPLC). The format is physicochemical. The settings on record: prodrug remaining; for Assay T = 1 M: 1 month; for Assay T = 6 M: 6 months; for Assay T = 0: T = 0 months; for Assay T = 2 W: 2 weeks. As to the method:
Solubility was performed in water. […] The time-points for stability were T=0 months, T=2 weeks, T=1 month, T=3 months and T=6 months.
The following outlines the conditions utilized for analysis of this prodrug. Analysis was conducted using High-Performance Liquid Chromatography (HPLC).
The following outlines the conditions utilized for analysis of this prodrug. Analysis was conducted using HPLC.
The following outlines the conditions utilized for analysis of the prodrug. Analysis was conducted using HPLC.

Setting [3] is: listed as ethinyl estradiol lactate acetate.
The mark [4] stands for this setting: listed as ethinyl estradiol acetoxy acetate.

Consider ethinyl estradiol lactate-acetate, for which the “Hydrolysis (to ethinyl estradiol)” value in data set [1] is given as 100% (5 min). Besides, the “Hydrolysis (to ethinyl estradiol)” value in data set [1] (setting [3]) was 100%. Moreover, in data set [2], the “Assay T = 1 M” value was 93.67%, the “Assay T = 6 M” value is recorded as 95.89% and the “Assay T = 0” value is 94.43%. Also, the “Assay T = 3 M” value in data set [2] (3 months) is on record as 95.91%. Also, the “Assay T = 6 M” value in data set [2] (setting [3]) is 95.9%.
Consider ethinyl estradiol acetoxy acetate, for which, in data set [1], the “Hydrolysis (to ethinyl estradiol)” value is reported as 100% (5 min). In addition, the “Hydrolysis (to ethinyl estradiol)” value in data set [1] (setting [4]) is on record as 100%. In addition, in data set [2], the “Assay T = 1 M” value came out at 97.0%, the “Assay T = 2 W” value is recorded as 97.2% and the “Assay T = 0” value was found to be 97.8%. The “Assay T = 1 M” value in data set [2] (setting [4]) worked out at 97%.
On to `C#CC1(O)CC[C@H]2[C@@H]3CCc4cc(OC(=O)[C@@H]5CCCN5C(C)=O)ccc4[C@H]3CC[C@@]21C` (stereo partly drawn) [Ethinyl Estradiol N-Acetyl Prolinate, ethinyl estradiol N-acetyl proline], for which, in data set [2], the “Assay T = 2 W” value turned out to be 96.6% and the “Assay T = 0” value is listed as 97.2%.

For the origin of these results see US7795241B2, “Derivative prodrugs of ethinyl estradiol” (Warner Chilcott Company, LLC, priority 2005, dated 2010).
